Reference: patent publication US20090192137A1, “Dialysis method” (AstraZeneca AB, priority 1993, published 2009)

Tests used:
[1] = Pig study: clearance of iohexol to monitor filter clearance; format: in vivo; details: Swedish Land Race, plasma and dialysing solution, intravenous, 6000 mg, dialysis filter clearance, measured every half-hour, two experiments
Experimental: (§1) Before connection of the efferent and afferent blood lines, 20 mL (300 mg/mL) of iohexol (Omnipaque®, Nycomed AB, Lidingö, Sweden) was administered in the ear vein to monitor filter clearance. Two minutes before the start of dialysis, 0.15 μmol/kg of melagatran was given via the right femoral vein as a bolus.
Amounts of iohexol in plasma and dialysing solution were determined at the Laboratory of the Division of Nephrology (Sahlgren's University Hospital, Gothenberg, Sweden) using a Reanalyzer PRX 90 (Provalid AB Lund, Sweden).

thrombin [2] = target: T1, thrombin (Sus scrofa, UniProt Q19AZ8); details: during dialysis session
Experimental: For the determination of activated partial thromboplastin time (APTT), ecarin clotting time (ECT) and the amount of melagatran in plasma, twelve aliquots of blood were drawn at specific time points into plastic tubes containing one volume of 0.13 M sodium citrate. Plasma was recovered after immediate centrifugation (10,000 g for 5 minutes) and stored at −20° C. prior to analysis.
APTT was determined using a KC10 A micro coagulometer (Amelung, Lemago, Germany). 25 μL of citrate plasma was incubated with 25 μL of PTT-Automate reagent (Diagnostica Stago, Asnieres, France) for 3 minutes. Coagulation was started using 25 μL of 0.025 M CaCl2 (Diagnostica Stago, Asniéres. France) and the time taken to the start of coagulation was measured.

[3] = Pig study: concentration of melagatran in plasma and dialysis outlet during dialysis; format: in vivo
Experimental: Two Swedish Land Race pigs weighing 59 and 57 kg respectively were used. Anaesthesia was induced using Ketaminol® (10 mg/kg, i.m. Veterinaria AG, Switzerland) and Dormicum® (1 to 2 mg/kg, i.m. Roche, Basel, Switzerland), followed by, after 20 minutes, Diprivan® ([…] i.v. Zeneca Limited, Macclesfield, Cheshire, United Kingdom), intubated and ventilated at 15 cycles/minute with air containing 2 to 3% Forene® (Abbott Scandinavia AB, Kista. Sweden) using a Servo Ventilator 900C (Siemens Elema, Solna, Sweden).
(§2) The anaesthetised pigs were subjected to bilateral ligation of renal arteries and veins using lateral flank approaches. The wounds were then closed and the animals were placed on their backs. Two catheters (Kimal, K41/3B/LL, Uxbridge, England) were inserted into the right femoral artery and vein for connection to the dialysis equipment. The artery catheter was used to provide blood to (efferent blood line), and the vein catheter to receive blood from (afferent blood line), the dialysis filter. One polyethylene catheter (Intramedic PE-200, Clay Adams, Parsippany, N.J., USA) was inserted into an artery (right saphenous in pig A and brachial in pig B) for blood pressure (MAP) recording (transducer Peter von Berg Medizintechnik GmbH, Kirchseeon/Eglharting, Germany) and for blood samples, pH and blood gas measurements.
(§3) Before the start of dialysis, the LunDia Pro 600 dialysis filter (Gambro, Lund, Sweden) was primed on both sides for 15 minutes with Biosol A201.5 glucose (Pharmalink, Solna, Sweden) dialysis concentrate diluted 1:35 using a Gambro AK-100 (Grambro. Lund, Sweden) haemodialysis equipment (see FIG. 5). The dialysis concentrate was supplemented with melagatran (35 μM; thus providing 1 μM after dilution). The flow rate was adjusted to 500 mL/min on the dialysing solution side and to 250 mL/min on the blood side of the membrane by separate pumps. Pressure was measured (transducer Peter von Berg Medizintechnik) on both sides of the dialysis membrane.
as §1
After connection of blood lines and two minutes after the administration of the melagatran bolus dose, dialysis was started and carried out for 3 hours. Then, the procedure was interrupted, the blood lines disconnected and the filter and blood lines washed by pumping saline instead of blood to check for the presence of macroscopic blood clots.
The amount of melagatran in plasma was quantified using liquid chromatographic and mass spectrometric methods (BA-285, AstraZeneca R&D, Mölndal, Sweden).

[4] = test system: anaesthetised pigs without kidney function; assay: Pig study: prevention of coagulation and maintained filter function during haemodialysis; format: in vivo
From the text: The aim of this study was to test whether melagatran, given via the dialysing solution during dialysis could prevent coagulation and allow a maintained filter function throughout the session in acute experiments with anaesthetised pigs without kidney function.
To avoid very early thrombotic occlusion of blood lines and filters, which, if observed, would have prevented the drawing of meaningful conclusions regarding the utility of the method, an i.v. bolus dose of melagatran was given immediately before the start of extracorporeal blood circulation in these experiments.
as §2
as §3, with “membrane. […]” for “membrane.”

thrombin [5] = target: T1, thrombin; details: TAS equipment, during dialysis session
Experimental: For the determination of activated partial thromboplastin time (APTT), ecarin clotting time (ECT) and the amount of melagatran in plasma, twelve aliquots of blood were drawn at specific time points into plastic tubes containing one volume of 0.13 M sodium citrate. Plasma was recovered after immediate centrifugation (10,000 g for 5 minutes) and stored at −20° C. prior to analysis. For the determination of the amount of iohexol in plasma, blood was drawn in heparinized tubes, centrifuged is (10,000 g for 5 minutes) and stored at −20° C. prior to analysis.
ECT was determined in 30 μL citrate plasma using a TAS device (Thrombolytic Assessment System, Cardiovascular Diagnostics Inc., Raleigh, N.C.) and appropriate solid reagent test cards, as recommended.

| clearance [1] [mL/min] | concentration at 2 min ([3]; Swedish Land Race, pig, plasma, iv, 0.15 μmol/kg, start of dialysis, 2 minutes after i.v. bolus dose, both pigs, read-out: concentration of melagatran in plasma (efferent blood)) [nM] | time to equilibration ([3]; acutely anuric pig) | concentration of melagatran in the dialysis outlet, higher than on the blood side ([3]; except the very first sample at the start of dialysis) | concentration of melagatran in plasma, level-off ([3]; over the first ˜0 minutes of dialysis, then quite constant, dialysing solution 1 μM expected) | SMILES | APTT times, relation to melagatran concentration (thrombin [2]) | macroscopic thrombi in filters and tubing after dialysis ([4]; 3 hour dialysis, both pigs, washed with saline over 15 minutes) | filter function ([4]; judged from iohexol clearance, 3 hours of dialysis) | pressure in the efferent blood-line ([4]; one pig, 3 hour dialysis, stable) | ecarin clotting times (ECT), relation to drug concentration in plasma (thrombin [5]) |
| --- | --- | --- | --- | --- | --- | --- | --- | --- | --- | --- |
| ~150 |  |  |  |  | CC(=O)N(CC(O)CO)c1c(I)c(C(=O)NCC(O)CO)c(I)c(C(=O)NCC(O)CO)c1I (stereo not shown) [iohexol] |  |  |  |  |  |
|  | 900 to 1000 | within one hour | about 0.2 μM | about 0.25 μM | N=C(N)c1ccc(CNC(=O)[C@@H]2CCN2C(=O)[C@H](NCC(=O)O)C2CCCCC2)cc1 [melagatran, HOOC—CH2—(R)Cgl-Aze-Pab-H] | proportional to the logarithm of melagatran concentration | macroscopic thrombi had not been formed | filter function was maintained over the full 3 hours of dialysis | about 275 mm Hg | closely reflected drug concentrations in plasma |
